Test results taken from patent US20250051263A1, “NOVEL IONIZABLE LIPIDS AND LIPID NANOPARTICLES AND METHODS OF USING THE SAME” (Sail Biomedicines, Inc., priority 2021, published 2025).

Legend:
[1] = TNS (pKa) assay, apparent LNP pKa; type: physicochemical; settings: for pKa (TNS): Example 5 LNP lipid:DOPE:Plant Cholesterol:DMPE-PEG2k 35:16:46.5:2.5, FLUC/EPO 1:1 mRNA, N:P 6:1
Protocol: (protocol adapted from: A Novel Amino Lipid Series for mRNA Delivery: Improved Endosomal Escape and Sustained Pharmacology and Safety in Non-human Primates, Sabnis, Staci et al., Molecular Therapy, Volume 26, Issue 6, 1509-1519) 20 buffers (10 mM sodium phosphate, 10 mM sodium borate, 10 mM sodium citrate, and 150 mM sodium chloride, in Distilled Water) of unique pH values ranging from 3.0-12.0 were prepared using 1M sodium hydroxide and 1M hydrochloric acid. 3.25 uL of LNPs (0.04 mg/mL mRNA, in PBS) were incubated with 2 μL of TNS reagent (0.3 mM, in DMSO) and 90 μL of buffer for each pH value (described above) in a 96-well black-walled plate. Each pH condition was performed in triplicate wells. The TNS fluorescence was measured using a Biotek Cytation Plate reader at excitation/emission wavelengths of 321/445 nm. The fluorescence values were then plotted and fit using a 4-parameter sigmoid curve. From the fit, the pH value yielding the half-maximal fluorescence was calculated and reported as the apparent LNP pKa value.
For pKa measurement, a […] assay was conducted according to those described in Sabnis et al., Molecular Therapy, 26(6):1509-19), which is incorporated herein by reference in its entirety. Briefly, 20 buffers (10 mM sodium phosphate, 10 mM sodium borate, 10 mM sodium citrate, and 150 mM sodium chloride, in distilled Water) of unique pH values ranging from 3.0-12.0 were prepared using 1M sodium hydroxide and 1M hydrochloric acid. 3.25 μL of a LNP composition (0.04 mg/mL mRNA, in PBS) was incubated with 2 μL of TNS reagent (0.3 mM, in DMSO) and 90 μL of buffer for each pH value (described above) in a 96-well black-walled plate. Each pH condition was performed in triplicate wells. The TNS fluorescence was measured using a Biotek Cytation Plate reader at excitation/emission wavelengths of 321/445 nm. The fluorescence values were then plotted and fit using a 4-parameter sigmoid curve. From the fit, the pH value yielding the half-maximal fluorescence was calculated and reported as the apparent LNP pKa value.

Balb/c mice [2] = assay: In-vivo bioluminescent imaging after IV injection of Fluc mRNA LNP; settings: IV; for Bioluminescence (IV) Liver / Bioluminescence (IV) Lung / Bioluminescence (IV) Spleen / Bioluminescence (IV) Whole Body / Spleen: Liver Ratio: Example 5 LNP (DOPE 35:16:46.5:2.5), 5 μg FLUC + 5 μg EPO; for Bioluminescence (IV) Liver / Bioluminescence (IV) Lung / Bioluminescence (IV) Spleen / Bioluminescence (IV) Whole Body / Bioluminescence Liver / Bioluminescence Lung / Bioluminescence Spleen: 4-6 hours post-dose; for Spleen: Liver Ratio: ratio of bioluminescence; for Bioluminescence Liver / Bioluminescence Lung / Bioluminescence Spleen: 5 ug Fluc+5 ug EPO mRNA
Protocol: (§1) 8-9 week old female Balb/c mice are utilized for bioluminescence-based ionizable lipid screening efforts. Mice are obtained from Jackson Laboratories (JAX Stock: 000651) and allowed to acclimate for one week prior to manipulations. Animals are placed under a heat lamp for a few minutes before introducing them to a restraining chamber. The tail is wiped with alcohol pads (Fisher Scientific) and 100 μL of a lipid nanoparticle composition descrbed above containing 10 ug total mRNA (5 ug Fluc+5 ug EPO) is injected intravenously using a 29 G insulin syringe (Covidien). Any resulting bleeding is stemmed using a sterile gauze pad (Fisher Scientific) and animals are placed back into their home cage. 4-6 hours post-dose, animals are injected with 200 μL of 15 mg/mL D-Luciferin (GoldBio) and placed in an isoflurane induction chamber set to deliver 2.5% isoflurane delivered at an oxygen flow rate of 1-2 liters per min. After 5 minutes of isoflurane exposure, mice are placed in set nose cones inside the IVIS Lumina LT imager (PerkinElmer). LivingImage software is utilized for imaging. Whole body bio-luminescence is captured at auto-exposure after which animals are removed from the IVIS and placed into a CO2 chamber for euthanasia. Cardiac puncture is performed on each animal after placing it in dorsal recumbency, and blood collection is performed using a 25 G insulin syringe (BD). Blood is collected in Lithium-Heparin coated tubes (Fisher Scientific) and immediately placed on ice. Once all blood samples are collected, tubes are spun at 2000 G for 10 minutes using a tabletop centrifuge and plasma is aliquoted into individual Eppendorf tubes (Fisher Scientific) and stored at −80 C for subsequent EPO quantification. EPO levels in plasma are determined using EPO MSD kit (Meso Scale Diagnostics).
(§2) 8-9 week old female Balb/c mice were utilized for bioluminescence-based ionizable lipid screening efforts. Mice were obtained from Jackson Laboratories (JAX Stock: 000651) and allowed to acclimate for one week prior to manipulations. Animals were placed under a heat lamp for a few minutes before introducing them to a restraining chamber. The tail was wiped with alcohol pads (Fisher Scientific) and, for each LNP composition descrbed above, 100 μL of a lipid nanoparticle composition descrbed above containing 10 μg total mRNA (5 μg Fluc+5 μg EPO, 5 μg Fluc+5 μg Cre, or 5 μg EGFP) was injected intravenously using a 29 G insulin syringe (Covidien).
(§3) 4-6 hours post-dose, animals were injected with 200 μL of 15 mg/mL D-Luciferin (GoldBio), and placed in set nose cones inside the IVIS Lumina LT imager (PerkinElmer). LivingImage software was utilized for imaging. Whole body bio-luminescence was captured at auto-exposure after which animals are removed from the IVIS and placed into a CO2 chamber for euthanasia. Cardiac puncture was performed on each animal after placing it in dorsal recumbency, and blood collection was performed using a 25 G insulin syringe (BD). Once all blood samples were collected, tubes are spun at 2000 G for 10 minutes using a tabletop centrifuge and plasma was aliquoted into individual Eppendorf tubes (Fisher Scientific) and stored at −80° C. for subsequent EPO quantification. EPO levels in plasma were determined using EPO MSD kit (Meso Scale Diagnostics).

Balb/c mice [3] = assay: EPO levels in plasma by EPO MSD kit after IV injection of EPO mRNA LNP; type: in vivo
Protocol: as §1, §2, §3

[4] = LNP size and polydispersity, Zetasizer Ultra; type: physicochemical; settings: Example 5 LNP lipid:DOPE:Plant Cholesterol:DMPE-PEG2k 35:16:46.5:2.5, FLUC/EPO 1:1 mRNA, N:P 6:1
Excerpt: (§4) All other compositions (i.e., compositions of MC3 (a commercially available ionizable lipid having a chemical name of (6Z,9Z,28Z,31Z)-heptatriacont-6,9,28,31-tetraene-19-yl 4-(dimethylamino)butanoate, and compositions of novel ionizable lipids 7669, 7671, 7668, 767, 7650) are composed of ionizable lipid:structural lipid:sterol:PEG-lipid (SDA lipid #:DSPC:cholesterol:14:0 PEG2000 PE) at a molar ratio of […], respectively. Lipids are solubilized in ethanol. Compositions are then handled as above, except the formulations are maintained at ionizable lipid to mRNA N:P ratio of 6:1. The lipid mix and mRNA solution are mixed at a 1:3 ratio by volume, respectively, on a NanoAssemblr Ignite (Precision Nanosystems) at a total flow rate of 9 mL/min. Resulting compositions are then loaded into Slide-A-Lyzer G2 dialysis cassettes (10 k MWCO) and dialyzed in 200 times sample volume of 1×PBS for 4 hrs at room temp with gentle stirring. The PBS is refreshed, and the compositions are further dialyzed for at least 14 hrs at 4° C. with gentle stirring. The dialyzed compositions are then collected and concentrated by centrifugation at 2000×g using Amicon Ultra centrifugation filters (100 k MWCO). Concentrated particles are characterized for size, polydispersity, and particle concentration using Zetasizer Ultra (Malvern Panalytical) and for mRNA encapsulation efficiency using Quant-iT RiboGreen RNA Assay Kit (ThermoFisher Scientific).
(§5) The lipid mix and mRNA solution were mixed at a 1:3 ratio by volume, respectively, on the NanoAssemblr Ignite (Precision Nanosystems) at a total flow rate of 9 mL/min. Resulting formulations were then loaded into Slide-A-Lyzer G2 dialysis cassettes (10 k MWCO) and dialyzed in 200 times sample volume of 1×PBS for 2 hrs at room temperature. The PBS was refreshed, and the formulations were further dialyzed for at least 14 hrs at 4° C. with gentle stirring. The dialyzed formulations were then collected and concentrated by centrifugation at 3000×g using Amicon Ultra centrifugation filters (100 k MWCO). The concentrated formulations were characterized for size, polydispersity, and particle concentration using Zetasizer Ultra (Malvern Panalytical) and for mRNA encapsulation efficiency using Quant-iT RiboGreen RNA Assay Kit (ThermoFisher Scientific).
(§6) For each LNP composition, the lipid mix and mRNA solution were mixed at a 1:3 ratio by volume, respectively, on a NanoAssemblr Ignite (Precision Nanosystems) at a total flow rate of 9 mL/min. The resulting compositions were then loaded into Slide-A-Lyzer G2 dialysis cassettes (10 k MWCO) and dialyzed in 200 times sample volume of 1×PBS for 2 hours at room temperature with gentle stirring. The PBS was refreshed, and the compositions were further dialyzed for at least 14 hours at 4° C. with gentle stirring. The dialyzed compositions were then collected and concentrated by centrifugation at 3000×g using Amicon Ultra centrifugation filters (100 k MWCO). The concentrated particles were characterized for size, polydispersity, and particle concentration using Zetasizer Ultra (Malvern Panalytical) and for mRNA encapsulation efficiency using Quant-iT RiboGreen RNA Assay Kit (ThermoFisher Scientific).

[5] = mRNA encapsulation efficiency, Quant-iT RiboGreen RNA Assay; type: physicochemical; settings: Example 5 LNP lipid:DOPE:Plant Cholesterol:DMPE-PEG2k 35:16:46.5:2.5, FLUC/EPO 1:1 mRNA, N:P 6:1
Excerpt: as §4, §5, §6

[6] = LNP lipid:DOPE:Plant Chol.:DMPE-PEG2k 35:16:46.5:2.5 (Table 1)
[7] = LNP lipid:DSPC:Plant Chol.:DMPE-PEG2k 50:10:38.5:1.5
[8] = Example 5 LNP (DOPE 35:16:46.5:2.5), 5 μg FLUC + 5 μg EPO

CCCCCCCCCCCOC(=O)CCCCCN(CCCCCCCC(=O)OC(CCCCCCCC)CCCCCCCC)CCNC(=O)CCC(=O)NCCN(CCCCCCCC(=O)OC(CCCCCCCC)CCCCCCCC)CCCCCC(=O)OCCCCCCCCCCC [Compound 2221, 1-octylnonyl 8-[2-[[4-[2-[[8-(1-octylnonoxy)-8-oxo-octyl]-(6-oxo-6-undecoxy-hexyl)amino]ethylamino]-4-oxo-butanoyl]amino]ethyl-(6-oxo-6-undecoxy-hexyl)amino]octanoate]
pKa (TNS) [1]: 6.36
pKa ([1]; LNP ionizable lipid:DOPE:Plant Chol.:DMPE-PEG2k 35:16:46.5:2.5 (Table 1)): 6.36
pKa ([1]; LNP ionizable lipid:DSPC:Plant Chol.:DMPE-PEG2k 50:10:38.5:1.5): 6.29
Bioluminescence (IV) Liver (Balb/c mice [2]): 3.0E+06
Bioluminescence (IV) Lung (Balb/c mice [2]): 1.9E+03
Bioluminescence (IV) Spleen (Balb/c mice [2]): 2.7E+05
Bioluminescence (IV) Whole Body (Balb/c mice [2]): 2.2E+07
Spleen: Liver Ratio (Balb/c mice [2]): 0.082
Bioluminescence Liver (Balb/c mice [2]; [6]): 3.05E+06
Bioluminescence Lung (Balb/c mice [2]; [6]): 1.88E+03
Bioluminescence Spleen (Balb/c mice [2]; [6]): 2.68E+05
Bioluminescence Liver (Balb/c mice [2]; [7]): 2.94E+06
Bioluminescence Lung (Balb/c mice [2]; [7]): 5.09E+03
Bioluminescence Spleen (Balb/c mice [2]; [7]): 1.23E+06
hEPO (Balb/c mice [3]; [8]): 4.7E+05
hEPO (Balb/c mice [3]; LNP lipid:DOPE:Plant Chol.:DMPE-PEG2k 35:16:46.5:2.5 (Table 1), 5 ug Fluc+5 ug EPO mRNA): 4.71E+05
hEPO (Balb/c mice [3]; LNP lipid:DSPC:Plant Chol.:DMPE-PEG2k 50:10:38.5:1.5, 5 ug Fluc+5 ug EPO mRNA): 4.46E+05

CCCCCCCCCCCOC(=O)CCCCCN(CCCCCCCC(=O)OC(CCCCCCCC)CCCCCCCC)CCNC(=O)CCCC(=O)NCCN(CCCCCCCC(=O)OC(CCCCCCCC)CCCCCCCC)CCCCCC(=O)OCCCCCCCCCCC [Compound 2273, 1-octylnonyl 8-[2-[[5-[2-[[8-(1-octylnonoxy)-8-oxo-octyl]-(6-oxo-6-undecoxy-hexyl)amino]ethylamino]-5-oxo-pentanoyl]amino]ethyl-(6-oxo-6-undecoxyhexyl)amino]octanoate]
pKa (TNS) [1]: 6.57
Bioluminescence (IV) Liver (Balb/c mice [2]): 7.6E+06
Bioluminescence (IV) Lung (Balb/c mice [2]): 1.0E+04
Bioluminescence (IV) Spleen (Balb/c mice [2]): 5.7E+05
Bioluminescence (IV) Whole Body (Balb/c mice [2]): 4.2E+07
Spleen: Liver Ratio (Balb/c mice [2]): 0.080
hEPO (Balb/c mice [3]; [8]): 8.5E+05

CCCCCCCCC(CCCCCCCC)OC(=O)CCCCCCCN(CCCCCCCOC(=O)C(CCCCCCCC)CCCCCCCC)CCNC(=O)CCC(=O)NCCN(CCCCCCCOC(=O)C(CCCCCCCC)CCCCCCCC)CCCCCCCC(=O)OC(CCCCCCCC)CCCCCCCC [Compound 2323, 7-[2-[[4-[2-[7-(2-octyldecanoyloxy)heptyl-[8-(1-octylnonoxy)-8-oxo-octyl]amino]ethylamino]-4-oxo-butanoyl]amino]ethyl-[8-(1-octylnonoxy)-8-oxo-octyl]amino]heptyl 2-octyldecanoate]
PDI [4]: 0.14
Size (nm) [4]: 91.0 nm
% EE [5]: 90.7%
Bioluminescence (IV) Liver (Balb/c mice [2]): 3.2E+07
Bioluminescence (IV) Lung (Balb/c mice [2]): 7.7E+03
Bioluminescence (IV) Spleen (Balb/c mice [2]): 8.7E+05
Bioluminescence (IV) Whole Body (Balb/c mice [2]): 2.1E+08
Spleen: Liver Ratio (Balb/c mice [2]): 0.027
hEPO (Balb/c mice [3]; [8]): 3.1E+06
